Assay results taken from US12521393B2, “Cytotoxicity targeting chimeras for CCR2-expressing cells” (GLAXOSMITHKLINE INTELLECTUAL PROPERTY DEVELOPMENT LIMITED, priority 2021, dated 2026).

Tests used:
[1] = tested on: endogenous target monocytes in human PBMC; assay: PBMC ex vivo monocyte depletion flow cytometry assay (Example 200); assay type: cell-based; details: with anti-cotinine antibody (SEQ ID NO: 11/12), 18-24 hours, EC50 in molar, read-out: Ex Vivo Depletion Assay pEC50 (converted)
Procedure, shortened: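 Monocyte depletion is reported as pEC50, averaged or given individually across runs, and read by flow cytometry staining CD45, CD14 and CD4 with a viability dye. Compounds, diluted four-fold over 11 points from 1 mM DMSO stocks, were combined with 30 μg/mL Fc-enhanced anti-cotinine antibody and human PBMC, then incubated 18-24 h at 37° C.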

[2] = tested on: CCR2 expressing cells (CD11b+Ly6c+Hi) in peripheral blood; assay: In vivo depletion assay, flow cytometry of peripheral blood (Example 201); set-up: species or system human CCR2 knock-in mice (C57 background); details: hCCR2 knock-in mice, IV 0.1 mpk compound + 10 mpk anti-cotinine antibody (SEQ ID NO: 13/14), peripheral blood at 48 hr
Procedure, shortened: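 Flow cytometry of blood collected at study termination quantified percent depletion of CD11b+Ly6c+Hi cells and CCR2 expression, using surface markers CD45, CD3, CD11b, Ly6C, human CCR2 after Fc block, with 7AAD viability stain. Compound given in saline:DMSO:PBS formulation, optionally combined with anti-cotinine antibody, incubated 30 min before administration.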

[3] = biological target: human alpha1 nicotinic acetylcholine (nACh) receptor (Homo sapiens, UniProt P02708); assay: Nicotinic acetylcholine receptor antagonism assay, IONFlux automated patch clamp (Example 203); assay type: cell-based; details: for IC50: antagonism of ACh-stimulated human alpha1 nAChR current, patch clamp; for Emax at 10 µM: maximum percentage antagonism at maximum concentration tested 10 μM; for Emax at 10 µM / Emax at 100 µM: read-out: Maximum Response; for Emax at 100 µM: maximum percentage antagonism at maximum concentration tested 100 μM
human alpha1 nicotinic acetylcholine (nACh) receptor, sequence (P02708 21-457): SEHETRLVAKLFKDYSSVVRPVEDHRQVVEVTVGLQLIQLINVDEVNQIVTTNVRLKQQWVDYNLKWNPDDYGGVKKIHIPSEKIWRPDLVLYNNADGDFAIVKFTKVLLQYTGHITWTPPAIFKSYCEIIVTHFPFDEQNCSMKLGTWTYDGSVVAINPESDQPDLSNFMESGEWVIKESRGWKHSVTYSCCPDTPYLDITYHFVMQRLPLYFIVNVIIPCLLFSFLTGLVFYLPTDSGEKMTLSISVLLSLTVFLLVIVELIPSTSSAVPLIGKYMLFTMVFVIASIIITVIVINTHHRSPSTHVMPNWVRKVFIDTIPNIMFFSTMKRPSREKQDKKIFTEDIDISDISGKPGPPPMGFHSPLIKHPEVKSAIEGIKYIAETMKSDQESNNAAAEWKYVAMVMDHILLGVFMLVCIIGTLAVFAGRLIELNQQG
human alpha1 nicotinic acetylcholine (nACh) receptor, sequence (P11230 24-501 partner): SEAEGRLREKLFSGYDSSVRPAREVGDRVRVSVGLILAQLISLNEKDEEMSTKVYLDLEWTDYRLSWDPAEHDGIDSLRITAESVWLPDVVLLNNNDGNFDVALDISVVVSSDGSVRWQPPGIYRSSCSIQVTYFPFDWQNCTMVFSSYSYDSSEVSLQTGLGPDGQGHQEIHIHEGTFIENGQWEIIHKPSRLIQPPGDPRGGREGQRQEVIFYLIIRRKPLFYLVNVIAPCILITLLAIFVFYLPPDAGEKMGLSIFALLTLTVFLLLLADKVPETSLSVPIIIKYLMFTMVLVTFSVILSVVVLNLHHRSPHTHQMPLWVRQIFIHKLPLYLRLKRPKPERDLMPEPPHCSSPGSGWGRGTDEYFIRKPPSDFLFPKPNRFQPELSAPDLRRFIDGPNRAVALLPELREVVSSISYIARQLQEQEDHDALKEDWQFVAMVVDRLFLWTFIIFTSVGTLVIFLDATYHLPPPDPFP
human alpha1 nicotinic acetylcholine (nACh) receptor, sequence (Q07001 22-517 partner): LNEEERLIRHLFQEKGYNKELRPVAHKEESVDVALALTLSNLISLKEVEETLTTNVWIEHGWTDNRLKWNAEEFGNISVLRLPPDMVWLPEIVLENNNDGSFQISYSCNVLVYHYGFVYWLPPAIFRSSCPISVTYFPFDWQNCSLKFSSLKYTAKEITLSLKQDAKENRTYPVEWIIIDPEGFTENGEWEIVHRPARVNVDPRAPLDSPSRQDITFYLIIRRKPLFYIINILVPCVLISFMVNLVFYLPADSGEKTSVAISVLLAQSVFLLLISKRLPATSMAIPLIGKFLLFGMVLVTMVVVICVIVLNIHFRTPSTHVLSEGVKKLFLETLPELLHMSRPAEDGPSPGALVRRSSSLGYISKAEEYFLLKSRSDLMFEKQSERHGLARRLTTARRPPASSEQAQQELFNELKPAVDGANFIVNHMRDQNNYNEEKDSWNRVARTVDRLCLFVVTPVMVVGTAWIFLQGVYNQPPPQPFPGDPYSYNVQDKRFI
Description: Cells expressing human alpha1 nicotinic acetylcholine (nACh) receptor (nAChR) were washed and dissociated using Trypsin containing buffer. Cells were then washed and seeded at a density of 3-5 million cells/mL and allowed to grow for 3 days. Then, 60-80 μL of cells were added to plates and incubated with dose response of an ARM compound of Formula (I) with a top concentration of either 10 μM or 100 μM. The receptor was then stimulated via addition of acetylcholine (ACh) and activation of the receptor was monitored via the IONFlux automated patch clamp system. IonFlux Data Analyzer software was utilized to perform leak subtraction and measure (min) peak current amplitude.
Data processing: (1) Current values recorded for vehicle only applications in individual traps/patterns were subtracted from corresponding current amplitude values for control, test article and control+test article. (2) Control response was calculated as % of the average response of the 3rd out of total 3 ACh (10 mM) applications alone. In rare situations, if the 3rd ACh response was obscured due to technical artifacts, the 2nd and/or 1st ACh (10 mM) application was considered as control. The peak current amplitude generated in the presence of each test article concentration was then used to calculate the % inhibition as compared to control response (10 mM ACh alone). These estimates were further corrected for vehicle response and run down corrected by normalizing with time matched control responses (10 mM ACh alone). The corrected percentages were then fit with a non-linear function in GraphPad Prism 6 (or later versions) to determine the IC50.
Exclusion criteria: (i) any n's with poor recording quality, (ii) control current amplitude <500 pA or (iii) significant outliers, as determined by the Grubbs test.
ARMs compounds of Formula (I) of the invention were tested for antagonism of the nAChR in the above assay in […] experimental runs and the results are shown in Table 7 below. Antagonistic activity of the compounds of Formula (I) of the invention is reported as an IC50 value (half maximal inhibitory concentration) and the maximum percentage antagonism observed at the highest concentration of compound of Formula (I) tested, as indicated in Table 7. For compounds tested in more than one experimental run, the IC50 value is reported as an average

| Structure (SMILES) | EC50 [1] [µM] | % Depletion of CCR2 expressing cells [2] [%] | IC50 [3] [µM] | Emax at 10 µM [3] [%] | Emax at 100 µM [3] [%] |
| --- | --- | --- | --- | --- | --- |
| CC(C)N(C)[C@@H]1CC[C@H](N2CC[C@H](Nc3ncnc4ccc(C(F)(F)F)cc34)C2=O)[C@H](NC(=O)c2ccc(N3CCC(C(=O)NCCOCCOCCNC(=O)[C@H]4CC(=O)N(C)[C@@H]4c4cccnc4)CC3)cc2)C1 [Example 130, 1-(4-(((1R,2S,5R)-5-(Isopropyl(methyl)amino)-2-((S)-2-oxo-3-((6-(trifluoromethyl)quinazolin-4-yl)amino)pyrrolidin-1-yl)cyclohexyl)carbamoyl)phenyl)-N-(2-(2-(2-((2S,3S)-1-methyl-5-oxo-2-(pyridin-3-yl)pyrrolidine-3-carboxamido)ethoxy)ethoxy)ethyl)piperidine-4-carboxamide] | 0.000631 | 81.81 | ≥ 10 | 16.8 | – |
| CC(C)N(C)[C@@H]1CC[C@H](N2CC[C@H](Nc3ncnc4ccc(C(F)(F)F)cc34)C2=O)[C@H](NC(=O)CCOCCOCCO[C@H]2CC[C@H](OCCNC(=O)[C@H]3CC(=O)N(C)[C@@H]3c3cccnc3)CC2)C1 [Example 192, (2S,3S)-N-(2-(((1R,4S)-4-(2-(2-(3-(((1R,2S,5R)-5-(Isopropyl(methyl)amino)-2-((S)-2-oxo-3-((6-(trifluoromethyl)quinazolin-4-yl)amino)pyrrolidin-1-yl)cyclohexyl)amino)-3-oxopropoxy)ethoxy)ethoxy)cyclohexyl)oxy)ethyl)-1-methyl-5-oxo-2-(pyridin-3-yl)pyrrolidine-3-carboxamide] | – | 84.8 | 74.3 | – | 53 |
| CC(C)N(C)[C@@H]1CC[C@H](N2CC[C@H](Nc3ncnc4ccc(C(F)(F)F)cc34)C2=O)[C@H](NC(=O)[C@H]2C[C@H](NC(=O)CCCO[C@H]3CC[C@H](OCCNC(=O)[C@H]4CC(=O)N(C)[C@@H]4c4cccnc4)CC3)C2)C1 [Example 8, (2S,3S)-N-(2-(((1R,4S)-4-(4-(((1R,3R)-3-(((1R,2S,5R)-5-(Isopropyl(methyl)amino)-2-((S)-2-oxo-3-((6-(trifluoromethyl)quinazolin-4-yl)amino)pyrrolidin-1-yl)cyclohexyl)carbamoyl)cyclobutyl)amino)-4-oxobutoxy)cyclohexyl)oxy)ethyl)-1-methyl-5-oxo-2-(pyridin-3-yl)pyrrolidine-3-carboxamide] | – | 90.3 | 47.2 | – | 73.1 |
| CC(C)N(C)[C@@H]1CC[C@H](N2CC[C@H](Nc3ncnc4ccc(C(F)(F)F)cc34)C2=O)[C@H](NC(=O)[C@H]2CC[C@H](c3ccc(C(=O)NCCOCCOCCNC(=O)[C@H]4CC(=O)N(C)[C@@H]4c4cccnc4)cc3)CC2)C1 [Example 140, (2S,3S)-N-(2-(2-(2-(4-((1R,4r)-4-(((1R,2S,5R)-5-(Isopropyl(methyl)amino)-2-((S)-2-oxo-3-((6-(trifluoromethyl)quinazolin-4-yl)amino)pyrrolidin-1-yl)cyclohexyl)carbamoyl)cyclohexyl)benzamido)ethoxy)ethoxy)ethyl)-1-methyl-5-oxo-2-(pyridin-3-yl)pyrrolidine-3-carboxamide] | 0.000398 | 89.13 | ≥ 10 | 18.2 | – |
| CC(C)N(C)[C@@H]1CC[C@H](N2CC[C@H](Nc3ncnc4ccc(C(F)(F)F)cc34)C2=O)[C@H](NC(=O)C2CCN(c3ccc(C(=O)NCCOCCOCCNC(=O)[C@H]4CC(=O)N(C)[C@@H]4c4cccnc4)cc3)CC2)C1 [Example 142, N-((1R,2S,5R)-5-(Isopropyl(methyl)amino)-2-((S)-2-oxo-3-((6-(trifluoromethyl)quinazolin-4-yl)amino)pyrrolidin-1-yl)cyclohexyl)-1-(4-((2-(2-(2-((2S,3S)-1-methyl-5-oxo-2-(pyridin-3-yl)pyrrolidine-3-carboxamido)ethoxy)ethoxy)ethyl)carbamoyl)phenyl)piperidine-4-carboxamide] | 0.000398 | 79.27 | ≥ 10 | 13.1 | – |
| CC(C)N(C)[C@@H]1CC[C@H](N2CC[C@H](Nc3ncnc4ccc(C(F)(F)F)cc34)C2=O)[C@H](NC(=O)[C@H]2C[C@@H](NC(=O)CCOCCNC(=O)CCOCCNC(=O)[C@H]3CC(=O)N(C)[C@@H]3c3cccnc3)C2)C1 [Example 44, (2S,3S)-N-(2-(3-((2-(3-(((1S,3s)-3-(((1R,2S,5R)-5-(Isopropyl(methyl)amino)-2-((S)-2-oxo-3-((6-(trifluoromethyl)quinazolin-4-yl)amino)pyrrolidin-1-yl)cyclohexyl)carbamoyl)cyclobutyl)amino)-3-oxopropoxy)ethyl)amino)-3-oxopropoxy)ethyl)-1-methyl-5-oxo-2-(pyridin-3-yl)pyrrolidine-3-carboxamide] | 0.000631 | 91 | ≥ 100 | – | 51.5 |
| CC(C)N(C)[C@@H]1CC[C@H](N2CC[C@H](Nc3ncnc4ccc(C(F)(F)F)cc34)C2=O)[C@H](NC(=O)c2ccc(C3CCN(CCOCCOCCNC(=O)[C@H]4CC(=O)N(C)[C@@H]4c4cccnc4)CC3)cn2)C1 [Example 94, N-((1R,2S,5R)-5-(Isopropyl(methyl)amino)-2-((S)-2-oxo-3-((6-(trifluoromethyl)quinazolin-4-yl)amino)pyrrolidin-1-yl)cyclohexyl)-5-(1-(2-(2-(2-((2S,3S)-1-methyl-5-oxo-2-(pyridin-3-yl)pyrrolidine-3-carboxamido)ethoxy)ethoxy)ethyl)piperidin-4-yl)picolinamide] | 0.002 | 88.66 | 4.66 | 67.1 | – |
| CC(C)N(C)[C@@H]1CC[C@H](N2CC[C@H](Nc3ncnc4ccc(C(F)(F)F)cc34)C2=O)[C@H](NC(=O)[C@H]2C[C@H](NC(=O)CCOCCOCCOCCNC(=O)[C@H]3CC(=O)N(C)[C@@H]3c3cccnc3)C2)C1 [Example 27, (2S,3S)-N-(2-(2-(2-(3-(((1R,3r)-3-(((1R,2S,5R)-5-(Isopropyl(methyl)amino)-2-((S)-2-oxo-3-((6-(trifluoromethyl)quinazolin-4-yl)amino)pyrrolidin-1-yl)cyclohexyl)carbamoyl)cyclobutyl)amino)-3-oxopropoxy)ethoxy)ethoxy)ethyl)-1-methyl-5-oxo-2-(pyridin-3-yl)pyrrolidine-3-carboxamide] | 0.01 | 80 | 93.7 | – | 53.8 |
| CC(C)N(C)[C@@H]1CC[C@H](N2CC[C@H](Nc3ncnc4ccc(C(F)(F)F)cc34)C2=O)[C@H](NC(=O)[C@H]2CC[C@@H](NC(=O)CCOCCCNC(=O)CCCNC(=O)[C@H]3CC(=O)N(C)[C@@H]3c3cccnc3)CC2)C1 [Example 17, (2S,3S)-N-(4-((3-(3-(((1S,4s)-4-(((1R,2S,5R)-5-(Isopropyl(methyl)amino)-2-((S)-2-oxo-3-((6-(trifluoromethyl)quinazolin-4-yl)amino)pyrrolidin-1-yl)cyclohexyl)carbamoyl)cyclohexyl)amino)-3-oxopropoxy)propyl)amino)-4-oxobutyl)-1-methyl-5-oxo-2-(pyridin-3-yl)pyrrolidine-3-carboxamide] | 0.000631 | 91 | ≥ 100 | – | 55.1 |
